Experimental data from patent US20250295732A1, “COMPOSITIONS AND METHODS FOR ACTIVATING INNATE IMMUNITY” (Zoetis Services LLC, priority 2021, published 2025).

What was measured:
Type in all cases: cell-based
[1] = tested on: bovine monocyte-derived macrophages; assay: ChIP-Seq for H3K27ac; settings: after CATH2 exposure and 3-day rest, pre-LPS; vs vehicle
Excerpt: Peripheral blood mononuclear cells (PBMC) were isolated from bovine blood using ficoll gradients. Bovine monocytes were isolated from PBMC using magnetic assisted cell sorting to positively select for CD14+ cells using anti-human CD14 microbeads (Miltenyi Biotec). Purified bovine blood CD14+ monocytes were differentiated into macrophages using an M2-skewing differentiation factor (recombinant bovine M-CSF) over 7 days then exposed to CATH2 or a vehicle control in the presence of bovine casein to mimic aspects of the mammary gland for 24 hr. Following treatment, vehicle and drug were removed and cells were washed to eliminate residual drug and monocyte-derived macrophages were rested for 3 days in order to assess reprogramming. Following the rest period, a subset of vehicle- and CATH2-trained monocyte-derived macrophages were assessed for epigenetic and transcriptomic changes. The remaining cells were challenged with LPS or E. coli bioparticle labeled with pH-sensitive pHrodo green dye and key parameters for macrophage activation/immune response were assessed including glycolytic activity, surface marker expression, gene expression, cytokine production, phagocytosis, reactive nitrogen species production, and miRNA profiling. […]

[2] = tested on: bovine monocyte-derived macrophages; assay: LPS-induced cytokine response of CATH2-trained monocyte-derived macrophages (U-Plex MSD); settings: CATH2 24 hr, removal, 3-day rest, LPS 1 μg/mL 24 hours; vs vehicle
Excerpt: (§1) Peripheral blood mononuclear cells (PBMC) were isolated from bovine blood using ficoll gradients. Bovine monocytes were isolated from PBMC using magnetic assisted cell sorting to positively select for CD14+ cells using anti-human CD14 microbeads (Miltenyi Biotec). Purified bovine blood CD14+ monocytes were differentiated into macrophages using an M2-skewing differentiation factor (recombinant bovine M-CSF) over 7 days then exposed to CATH2 or a vehicle control in the presence of bovine casein to mimic aspects of the mammary gland for 24 hr. […] Following the rest period, a subset of vehicle- and CATH2-trained monocyte-derived macrophages were assessed for epigenetic and transcriptomic changes. The remaining cells were challenged with LPS or E. coli bioparticle labeled with pH-sensitive pHrodo green dye and key parameters for macrophage activation/immune response were assessed including glycolytic activity, surface marker expression, gene expression, cytokine production, phagocytosis, reactive nitrogen species production, and miRNA profiling.
Cytokine levels in cell culture supernatant (IL-8/CXCL8, IL-6, TNFα, IL-1β, IL-10, IL-12p40) were quantified using customized U-Plex assays (MesoScale Diagnostics, LLC). […] Raw data were analyzed using MSD DISCOVERY BENCHWORK.

[3] = tested on: bovine monocyte-derived macrophages; assay: H3 histone modification quantification (ELISA); settings: vs vehicle
Excerpt: as §1
Histones were isolated from bovine monocyte-derived macrophages using commercially available histone extraction kits (Epigentek) according to the manufacturer's instructions and stored at −80° C. until histone quantification assays could be performed. […]

RFGRFLRKIRRFRPKVTITIQGSARFG [CATH2, cathelicidin 2 peptide]
ChIP-Seq peaks with H3K27ac mark [1]: increased number of peaks with H3K27ac mark
LPS-induced cytokine production (IL-12p40, IL-6, TNFα, IL-8, IL-1β, IL-10) [2]: enhanced production of both pro- and anti-inflammatory cytokines/chemokines
H3 histone modifications (incl. H3K27ac, H3K4me1) ([3]; after CATH2 exposure and rest period, pre-LPS): increased levels of various H3 histone modifications
H3 histone modifications following LPS challenge ([3]; after CATH2 exposure, rest, LPS 1 μg/mL 24 hr): some modifications are retained to a lesser extent
